Laboratory results as given in patent publication US11992500B2, “Use of methylation inhibitors for the treatment of autoimmune diseases” (Rush University Medical Center, priority 2018, dated 2024).
“Also recorded” adds a separate entry of the source.

Key:
[1] = tested on: B cells of mice with PGIA; test: Molecular, cellular and histological analyses of AzaC-treated PGIA mice; type: in vivo, BALB/c mice
[2] = tested on: proteoglycan-induced arthritis (PGIA); test: Therapeutic AzaC treatment of established PGIA; type: in vivo, BALB/c mice; details: AzaC i.p. every other day after first symptoms (score ≥2), 2 mg/kg
Description: (§1) Mice: Retired breeder female BALB/c mice were purchased from the National Cancer Institute (NCI) and were used for the generation of cartilage proteoglycan-induced arthritis (PGIA). Briefly, the mice were immunized with PG purified from knee joint cartilage osteoarthritis patients who had undergone joint replacement surgery. PG was injected intraperitoneally (IP) 3 times (at 3-week intervals, 100 μg PG core protein/injection) with 2 mg of dimethyl-dioctadecyl-ammonium bromide adjuvant into BALB/c mice. Mice with acute arthritis were sacrificed 9 days after the 3rd PG immunization. Animal experiments were approved by the Institutional Animal Care and Use Committee at Rush University Medical Center, Chicago, Ill. […] Additional characteristics of RA are also present in other rodent models, but the above listed phenotypes and genotypes are present together only in PGIA.
In the therapeutic AzaC treatment group, arthritic mice were i.p. injected with either AzaC or vehicle on every other day following the first symptoms of arthritis, when the visual arthritis score was at least ≥2 per animal (FIG. 3(B)).

[3] = tested on: proteoglycan-induced arthritis (PGIA); test: Prophylactic AzaC treatment of mice with PGIA; type: in vivo, BALB/c mice; details: prophylactic AzaC i.p. every other day from 10 days before expected onset
Description: as §1
First, the prophylactic effect of AzaC on arthritis development in mice with PGIA was investigated. AzaC treatment was started 10 days before the expected PGIA onset (on day 40 of the immunization) and was administered intraperitoneally (i.p.) every other day. The control group received saline solution (FIG. 3(A)). […] Female BALB/c mice were immunized 3 times with PG. Limbs were inspected regularly after the third PG injection for signs of arthritis, and a visual arthritis score was assigned to all paws. […]

[4] = cancer patients, effective dose; cited from earlier work
A20 cells [5] = test: Western blot of subcellular fractions of AzaC treated A20 cells; type: cell-based, mouse
Description: Western blot analyses: AzaC treated A20 cells (10 μM AzaC for 72 hours) washed with PBS, nuclear and cytoplasmic extracts were prepared from 8×10^6 cells using Nuclei EZ Prep kit (Sigma-Aldrich) according to the manufacturer's protocol. Protein extracts were separated on a 4-10% SDS-polyacrylamide gel (Bio-Rad Laboratories) and blotted onto Immuno-Blot membrane (Bio-Rad Laboratories). Western blots were serially probed with anti-AhR, anti-Lamin-B1 and glyceraldehyde-3-phosphate dehydrogenase (GAPDH) (Santa Cruz Biotechnologies) antibodies. ECL Western Blotting Substrate (ThermoScientific) was used for detection.

[6] = tested on: B cells of mice with PGIA; test: Molecular, cellular and histological analyses of AzaC-treated PGIA mice; type: in vivo, BALB/c mice; remark: listed apart in the source
Text: (§2) RNA isolation, cDNA synthesis, and quantitative reverse transcription-polymerase chain reaction (qRT-PCR): Total RNA from cell culture was isolated using QIAmp RNA Blood Kit (Qiagen) or Direct-Zol™ RNA miniprep Kit (Zymo Research). Each RNA sample was digested with 4U of TurboDNase™ (Ambion) and purified with RNA clean and concentrator-5 (Zymo Research) and samples quantified using NanoDrop 1000 spectrophotometer. Primary mouse cells were collected from the spleens, on day 9 after the third PG injection. B cells were purified using antibody-coated magnetic beads (StemCell Technologies). RNA was isolated from purified mouse lymphocytes using a TRI reagent (Sigma-Aldrich) immediately after separation.
Genomic DNA (gDNA) purification, Global DNA methylation assessment and Methylated CpG island ecovery assay (MIRA)-assisted microarray (MIRA-chip) and data analysis: gDNA was isolated from affinity purified B cells using QIAamp DNA Mini Kit (Qiagen). Global DNA methylation analysis was performed using Imprint Methylated DNA Quantification kit (Sigma-Aldrich). Experiments were conducted according to manufacturer instructions MIRA enrichment of methylated gDNA fractions were performed by MethylCollector™ Ultra kit (Active Motif), captured fractions were labeled and hybridized to microarrays harboring all mouse promoters and CpG island outside of the promoter regions (NimbleGene). Data analysis was performed as described before.
In another embodiment, the effect of AzaC treatment on germinal center (GC) formation in animals was investigated. Germinal center formation was examined in control (DDA adjuvant-injected and arthritic non-treated) and arthritic AzaC-treated mice (FIG. 4(C-D)). […] Joint-draining lymph nodes (FIG. 4(C)) and spleens (FIG. 4(D)). DDA-injected (adjuvant control), vehicle-treated mice with PGIA and AzaC-treated mice with PGIA. Green-GL7 (activated B and T cell marker), Red-CD45/B220 (B cells), Blue-CD4 & CD8a (T cells). Arrows point to GCs. GC %-percentage of GC-containing follicles observed in the investigated lymph nodes and spleens (n=36 follicles from LNs, n=106 follicles from spleens). Green sidebars-percentage of GC carrying follicles. Red sidebars are follicles without GC.

[7] = tested on: ex vivo-cultured arthritic B cells; test: Ahr expression (RT-qPCR) in ex vivo-cultured arthritic B cells; type: cell-based, mouse; details: 20 μM AzaC, FIG. 1(J)
Text: Primary mouse cells were collected from the spleens, on day 9 after the third PG injection. B cells were purified using antibody-coated magnetic beads (StemCell Technologies). RNA was isolated from purified mouse lymphocytes using a TRI reagent (Sigma-Aldrich) immediately after separation.

A20 cells [8] = test: Gene expression (qRT-PCR) in A20 cells cultured with epigenetic enzyme inhibitors; type: cell-based, mouse
Description: Cell cultures: A20 mouse B cell line were purchased from American Type Culture Collection (ATCC) and were maintained at 37° C. in a 5% CO2-humidified atmosphere on Dulbecco's modified Eagle's medium (DMEM) containing 10% fetal bovine serum (FBS) and […] each of penicillin and streptomycin. Human B cell line GM12878 were purchased from ATCC and cultured in RPMI 1640 media and maintained at 37° C. in a 5% CO2-humidified incubator as described above.
Azacitidine (AzaC) treatment of A20 cells: […] were seeded into 6-well plates containing 3 ml cell culture medium. Before AzaC treatment, cells were incubated for 16-18 hours at 37° C. in 5% CO2. Cells were treated with AzaC to a final concentration of 5, 10 and […], control cells were treated with 0.15% DMSO. Cells were incubated for 48, 72 and 96 hours under standard cell culture conditions. After 48 and 72 hours AzaC was replenished to keep the desired AzaC concentration. Harvested cells were washed with phosphate buffered saline (PBS) and viability and cell numbers were assessed on Vi-cell XR cell counter (Beckmann Counter).
as §2
Human peripheral blood mononuclear cells (PBMCs) were separated on a Ficoll gradient from blood samples obtained from consenting, healthy individuals and from RA patients naive to treatment with disease-modifying antirheumatic drugs (DMARDs). The isolated mononuclear cells were stored in RNAlater (Life Technologies) until RNA preparation. Complementary DNA was reverse transcribed from 1 μg total RNA with iScript™ Reverse Transcription Supermix (Bio-Rad Laboratories). Quantitative RT-PCR (CFX Connect™, Bio-Rad Laboratories) was performed in triplicate using SsoAdvanced™ Universal SYBR Green Supermix (Bio-Rad Laboratories) in 10 μl. Quantitative RT-PCR was performed using CFX machine (Bio-Rad). Primers were designed using PrimerQuest software and were manufactured by Integrated DNA Technologies. The qRT-PCR primer sequences are available upon request from the corresponding author. The specificity of the qRT-PCR product was monitored by a post-PCR melting curve analysis. Samples were tested in duplicate, and the CFX manager software was used to calculate the normalized fold expression changes based on the ΔΔCt method. Measured Ct values were normalized to β-actin internal control values.

A20 cells [9] = test: as above; type: cell-based, mouse; details: for AhR gene expression / Arnt gene expression: AzaC 2, 5, 10 μM, SAHA 0.1, 0.5, 1.0 μM, GSK126 5, 10, 15 μM, FIG. 6
Ezh2 = Ezh2 (Homo sapiens, UniProt Q15910); details: cited from earlier work
[10] = B cells of AzaC-treated PGIA mice, RT-qPCR
[11] = AzaC 48 hours, plasmid not expressing Ahr-specific shRNA

Ezh2, sequence (Q15910 whole entry, species assumed): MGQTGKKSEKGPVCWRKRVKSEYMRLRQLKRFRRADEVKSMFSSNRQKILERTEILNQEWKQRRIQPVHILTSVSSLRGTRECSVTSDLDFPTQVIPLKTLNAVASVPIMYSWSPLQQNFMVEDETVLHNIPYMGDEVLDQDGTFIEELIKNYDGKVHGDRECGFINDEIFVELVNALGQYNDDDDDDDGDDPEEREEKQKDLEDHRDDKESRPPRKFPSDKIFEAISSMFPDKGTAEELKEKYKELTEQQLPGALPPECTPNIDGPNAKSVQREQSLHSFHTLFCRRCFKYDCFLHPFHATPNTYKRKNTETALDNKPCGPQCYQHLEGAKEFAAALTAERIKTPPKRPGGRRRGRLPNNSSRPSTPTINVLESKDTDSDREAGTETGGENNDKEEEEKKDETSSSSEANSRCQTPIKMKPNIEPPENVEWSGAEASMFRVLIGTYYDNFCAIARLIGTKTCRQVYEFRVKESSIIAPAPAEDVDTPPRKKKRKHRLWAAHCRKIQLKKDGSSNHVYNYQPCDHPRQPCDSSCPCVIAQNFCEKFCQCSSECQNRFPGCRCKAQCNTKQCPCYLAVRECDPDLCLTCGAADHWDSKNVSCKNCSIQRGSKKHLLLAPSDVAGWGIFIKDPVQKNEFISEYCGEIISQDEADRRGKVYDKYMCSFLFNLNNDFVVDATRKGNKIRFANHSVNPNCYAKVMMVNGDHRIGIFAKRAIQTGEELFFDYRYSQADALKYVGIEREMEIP
Ezh2, sequence (O75530 whole entry partner, species assumed): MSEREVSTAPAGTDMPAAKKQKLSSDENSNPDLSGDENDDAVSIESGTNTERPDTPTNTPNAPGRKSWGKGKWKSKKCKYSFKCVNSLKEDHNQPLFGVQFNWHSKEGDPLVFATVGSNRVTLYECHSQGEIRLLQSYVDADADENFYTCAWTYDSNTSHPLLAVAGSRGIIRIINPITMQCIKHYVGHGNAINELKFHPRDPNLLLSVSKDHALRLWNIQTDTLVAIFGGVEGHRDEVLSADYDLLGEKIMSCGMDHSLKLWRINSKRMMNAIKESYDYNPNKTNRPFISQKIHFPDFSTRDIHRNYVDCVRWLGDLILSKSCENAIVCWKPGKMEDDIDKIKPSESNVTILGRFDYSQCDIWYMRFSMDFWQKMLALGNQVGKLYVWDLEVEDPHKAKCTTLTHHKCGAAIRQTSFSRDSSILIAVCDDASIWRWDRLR
Ezh2, sequence (Q15022 whole entry partner, species assumed): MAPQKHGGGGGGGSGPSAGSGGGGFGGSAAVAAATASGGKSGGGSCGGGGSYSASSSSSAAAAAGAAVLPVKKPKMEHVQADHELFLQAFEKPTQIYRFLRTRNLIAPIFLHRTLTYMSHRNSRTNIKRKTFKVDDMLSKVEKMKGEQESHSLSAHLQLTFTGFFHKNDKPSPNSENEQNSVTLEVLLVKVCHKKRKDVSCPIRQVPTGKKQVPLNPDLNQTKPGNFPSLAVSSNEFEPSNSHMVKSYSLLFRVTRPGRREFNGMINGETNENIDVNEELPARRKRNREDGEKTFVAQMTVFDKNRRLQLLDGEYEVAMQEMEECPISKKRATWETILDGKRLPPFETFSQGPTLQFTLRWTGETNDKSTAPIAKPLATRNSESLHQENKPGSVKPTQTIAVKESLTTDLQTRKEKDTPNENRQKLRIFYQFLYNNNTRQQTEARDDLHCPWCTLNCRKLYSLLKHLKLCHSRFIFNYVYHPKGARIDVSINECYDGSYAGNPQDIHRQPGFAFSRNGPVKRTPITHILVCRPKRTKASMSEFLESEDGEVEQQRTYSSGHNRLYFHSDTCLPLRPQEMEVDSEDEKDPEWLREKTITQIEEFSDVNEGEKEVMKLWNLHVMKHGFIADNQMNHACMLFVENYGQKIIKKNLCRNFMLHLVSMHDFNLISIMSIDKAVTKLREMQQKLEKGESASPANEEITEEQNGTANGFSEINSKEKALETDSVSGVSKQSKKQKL
Ezh2, sequence (Q09028 whole entry partner, species assumed): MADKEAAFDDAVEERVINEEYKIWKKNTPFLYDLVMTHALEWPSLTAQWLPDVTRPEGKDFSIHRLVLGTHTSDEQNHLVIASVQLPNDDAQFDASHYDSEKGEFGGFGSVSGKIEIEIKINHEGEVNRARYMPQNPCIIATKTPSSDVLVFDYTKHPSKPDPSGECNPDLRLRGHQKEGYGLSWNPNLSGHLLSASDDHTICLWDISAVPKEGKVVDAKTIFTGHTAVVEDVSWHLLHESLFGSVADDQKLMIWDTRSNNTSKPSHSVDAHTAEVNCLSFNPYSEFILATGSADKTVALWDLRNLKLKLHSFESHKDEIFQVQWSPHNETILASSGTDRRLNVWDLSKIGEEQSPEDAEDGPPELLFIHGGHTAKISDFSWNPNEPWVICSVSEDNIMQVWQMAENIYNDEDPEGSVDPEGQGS

Nc1ncn([C@@H]2O[C@H](CO)[C@@H](O)[C@H]2O)c(=O)n1 [AzaC, 4-Amino-1-(β-D-ribofuranosyl)-1,3,5-triazin-2(1H)-one]
Histology of ankle joints ([1]; AzaC-treated arthritic versus naive (non-immunized) ankles): no detectable histological differences | Immature B cell number ([1]; bone marrow, flow cytometry): significant decrease | Plasma cell number ([1]; bone marrow, flow cytometry): reduced, but statistically not significant alteration | Autoantibody titer (human PG-specific IgG1, ELISA) ([1]; sera of AzaC-treated PGIA mice): diminish autoantibody production; also recorded: significantly reduced | Splenic marginal zone (MZ) and follicular B cell populations ([1]; spleen, flow cytometry): no significant change | Swelling and progression of established PGIA [2]: significantly reduce swelling and halt the progression of PGIA; also recorded: very effective; also recorded: no detectable signs of PGIA after the second AzaC injection; also recorded: halted the progression of PGIA; also recorded: clinical symptoms of RA were abolished | Development of PGIA (signs of disease) [3]: No sign of the disease was observed; also recorded: prevents the development of arthritis; also recorded: prevents PGIA development | Adverse drug events / side effects [4]: triggers cytotoxicity and induces nausea, vomiting, fevers, diarrhea, rigors and many other side effects; also recorded: induces severe adverse drug events (ADEs) | Translocation of AhR into nuclei (A20 cells [5]; 10 μM AzaC for 72 hours, Western blot): translocation of the translated product into A20 nuclei; also recorded: AhR translocated into the nucleus without adding specific agonist | Aicda protein level in cytoplasmic fraction (A20 cells [5]; Western blot, FIG. 2(E)): downregulation could be also observed at protein level; also recorded: reduces Aicda level | AhR protein level (A20 cells [5]; Western blotting): elevated AhR protein level was not detected | Ahr expression in vivo [6, 10]: restore Ahr expression in vivo; also recorded: increased Ahr expression; also recorded: sufficient for releasing Ahr expression from DNA methylation-mediated blockage; also recorded: reactivated | Aicda expression in vivo [6, 10]: markedly inhibited; also recorded: downregulation of Aicda expression | DNA methylation level of Ahr promoter (MIRA) ([6]; B cells of AzaC-treated arthritic mice): erased arthritis-associated DNA hypermethylation; also recorded: reduced | Germinal center (GC) formation ([6]; spleen and draining lymph nodes): seriously impaired GC development and reduced GC number; also recorded: diminished; also recorded: impaired GC formation | Post-recombinant IgG1 transcript level (class switch recombination) ([6]; splenic B cells of AzaC-treated PGIA mice, qRT-PCR): significantly decreased | Ahr expression [7]: restored | Expression of tentative AhR target genes (cytokine genes) (A20 cells [8]; 10 μM AzaC for 72 hours, FIG. 5(C)): could significantly alter the expression of three tentative AhR target genes | Aicda expression with Ahr-specific shRNA (A20 cells [8]; AzaC 48 hours plus Ahr-specific shRNA-expressing construct): reversed | Ahr expression, control plasmid (A20 cells [8]; [11]): significantly increased | Aicda expression, control plasmid (A20 cells [8]; [11]): downregulated | AhR gene expression (A20 cells [8]; AzaC in various concentrations (5, 10, 15 μM), followed for three days, FIG. 1(L)): could revive AhR expression after two days | Cyp1a1 gene expression (A20 cells [8]; AzaC treatment): elevated expression of Cyp1a1 gene | Arnt expression (A20 cells [8]; AzaC treatment, FIG. 1(M), FIG. 2(A)): increased; also recorded: reactivated; also recorded: just prolonged and high concentration AzaC treatment could have released it from the silent state | RelB expression (A20 cells [8]; AzaC treatment, FIG. 2(B)): increased | Ahr expression, time course (A20 cells [9]; 10 μM AzaC, 24, 48 and 72 hours): could be reactivated; also recorded: increased Ahr expression; also recorded: significantly increased; also recorded: releases Ahr from DNA methylation-mediated silencing | AhR gene expression (A20 cells [9]; 72 hours): significant reactivation | Arnt gene expression (A20 cells [9]; 72 hours): could not trigger significant upregulation | Aicda expression (A20 cells [9]; extended exposure to AzaC (24-72 hours)): significantly downregulated; also recorded: reduces Aicda expression; also recorded: downregulated expression

O=C(CCCCCCC(=O)Nc1ccccc1)NO [SAHA, suberanilohydroxamic acid]
Cytotoxicity (A20 cells [9]; 72 hours): without high cytotoxicity | AhR gene expression (A20 cells [9]; 72 hours): could increase the gene expression | Arnt gene expression (A20 cells [9]; 72 hours): could increase the gene expression

CC[C@H](C)n1cc(C)c2c(C(=O)NCc3c(C)cc(C)[nH]c3=O)cc(-c3ccc(N4CCNCC4)nc3)cc21 [GSK126, N-[(1,2-dihydro-4,6-dimethyl-2-oxo-3-pyridinyl)methyl]-3-methyl-1-[(1S)-1-methylpropyl]-6-[6-(1-piperazinyl)-3-pyridinyl]-1H-indole-4-carboxamide]
AhR gene expression (A20 cells [9]; 72 hours): promoted the expression | Arnt gene expression (A20 cells [9]; 72 hours): statistically significant upregulation

CCCc1cc(C)[nH]c(=O)c1CNC(=O)c1cc(-c2ccnc(N3CCN(C)CC3)c2)cc2c1cnn2C(C)C [GSK343, N-[(1,2-dihydro-6-methyl-2-oxo-4-propyl-3-pyridinyl)methyl]-1-(1-methylethyl)-6-[2-(4-methyl-1-piperazinyl)-4-pyridinyl]-1H-indazole-4-carboxamide]
Ki (affinity to Ezh2) (Ezh2): low nM range
